Measurements reported in patent US11883468B2, “Compositions and methods to suppress tumor growth in bone, prevent cachectic muscle loss, and preserve skeletal integrity” (United States Government As Represented By The Department …, priority 2019, dated 2024).

How the values were obtained:
MDA-MB-231 BC cells = experiment: EVOCA with MDA-MB-231 cells, tumor gene mRNA by PCR; type: cell-based, human; conditions: 7d EVOCA
Protocol: FIGS. 7A, 7B, and 7C show the effects of bPTH7-34DD on MDA-MB-231; 7d EVOCA, PCR as done in FIG. 5.
(§1) EVOCA (ex vivo organ co-culture assay) of breast cancer cells and bone: Segments of neonatal mouse bone are prepared by a modification of Mohammad et al [2008]. Calvariae from euthanized 14 day old Swiss Webster pups are cut into 5 mm disks with a biopsy punch, yielding two disks (hemi-calvariae) per pup, and placed into wells of uncoated 24-well plates. Calvariae from βArr2−/− and +/+ littermates, as available, can be shipped in sterile tubes in standard tissue culture medium by overnight FedEx from the Luttrell laboratory at Medical University of South Carolina. Bones shipped overnight in media survive the shipping and give reproducible results, compared to freshly harvested bones. […] At the end of the incubation, bone are either fixed and decalcified for routine histology or homogenized for RNA isolation with a bead beater, using QIAGEN RNeasy mini kits, converted to cDNA (Biorad iScript,), and analyzed by quantitative PCR using Biorad SYBR green PCR kits and a Biorad iCycler single-color real-time detection system. […] EVOCA cultures can be analyzed by histology and IHC staining. […]

calvarial osteoblasts = conditions: osteoblasts from treated mice; cited from earlier work
bone = conditions: cited from earlier work
[1] = system: MDA-MB-231 breast cancer cells; experiment: EVOCA (ex vivo organ co-culture assay of tumor + bone), tumor burden by SSQ-PCR for hRPL32; type: cell-based, human; conditions: 7d EVOCA, wt bones
Protocol: 7D EVOCA. Tumor burden by SSQ-PCR for hRPL32.
as §1, with “bones. Cancer cells (2-10×10^3, depending on cell types and ability to adhere to bones; e.g., 2,000 for MDA-MB-231) are added in 0.5 ml BGJb medium (Life Technologies) +10% fetal calf serum and incubated at 37° C. in 5% CO2.” for “bones.”

[2] = 4 or 8 weeks, once-daily injection
[3] = continuous infusion, 40 μg/kg/d

Row | Compound | tumor hPTHrP mRNA (MDA-MB-231 BC cells) | anabolic markers of Obl activity (RUNX2, Alk Phos, Col1A1) (calvarial osteoblasts) | cortical bone parameters (periosteal circumference and cortical thickness) (bone; [2]) | mineral apposition (MAR, BFR) (bone; [2]) | tibial trabecular bone parameters (BV/TV, trabecular number) (bone; [2]) | elevation of urinary calcium excretion (bone; [3]) [×] | mRNA for Dars, aspartyl-tRNA synthetase, in bone (bone; [3]) | mRNA of Gab 1 in bone (bone; [3]) | serum osteocalcin (bone; once-daily injection) | osteoblast number and osteoid surface (bone; quantitative histomorphometry) | osteoclast numbers (bone; quantitative histomorphometry) | MDA-MB-231 tumor growth in bone [1]
1 | Fc1ccc(Cl)cc1-c1nc(Nc2ccncc2)c2nccnc2n1 [SD208] | not seen | – | – | – | – | – | – | – | – | – | – | –
2 | CC[C@H](C)[C@H](NC(=O)[C@H](CCC(=O)O)NC(=O)[C@H](CO)NC(=O)[C@@H](NC(=O)[C@@H](N)CO)C(C)C)C(=O)N[C@@H](CCC(N)=O)C(=O)N[C@@H](CC(C)C)C(=O)N[C@@H](CCSC)C(=O)N[C@@H](Cc1cnc[nH]1)C(=O)N[C@@H](CC(N)=O)C(=O)N[C@@H](CC(C)C)C(=O)NCC(=O)N[C@@H](CCCCN)C(=O)N[C@@H](Cc1cnc[nH]1)C(=O)N[C@@H](CC(C)C)C(=O)N[C@@H](CC(N)=O)C(=O)N[C@@H](CO)C(=O)N[C@@H](CCSC)C(=O)N[C@@H](CCC(=O)O)C(=O)N[C@@H](CCCN=C(N)N)C(=O)N[C@H](C(=O)N[C@@H](CCC(=O)O)C(=O)N[C@@H](Cc1c[nH]c2ccccc12)C(=O)N[C@@H](CC(C)C)C(=O)N[C@@H](CCCN=C(N)N)C(=O)N[C@@H](CCCCN)C(=O)N[C@@H](CCCCN)C(=O)N[C@@H](CC(C)C)C(=O)N[C@@H](CCC(N)=O)C(=O)N[C@@H](CC(=O)O)C(=O)N[C@H](C(=O)N[C@@H](Cc1cnc[nH]1)C(=O)N[C@@H](CC(N)=O)C(=O)N[C@@H](Cc1ccccc1)C(=O)O)C(C)C)C(C)C [hPTH1-34] | – | strongly increased | increased only by hPTH1-34 | equivalently increased | increased by both | 5 | increased | doubled | equivalently raised | increased by both | increased only by hPTH1-34 | increased
